Molecules are shown by their SMILES.

For this experiment, the target named is T1, T1R1 with G protein α-subunits (α15 and α16/Z chimeric protein) (Mus musculus, UniProt Q99PG6).
T1 construct: expressed in transfected cells; host or cells: 293 cells, RCB 1637 (human embryonic kidney)
T1 sequence (Q99PG6 20-842 L120P/N244D/D281A/N309Y/P311T/S314P/H418Y): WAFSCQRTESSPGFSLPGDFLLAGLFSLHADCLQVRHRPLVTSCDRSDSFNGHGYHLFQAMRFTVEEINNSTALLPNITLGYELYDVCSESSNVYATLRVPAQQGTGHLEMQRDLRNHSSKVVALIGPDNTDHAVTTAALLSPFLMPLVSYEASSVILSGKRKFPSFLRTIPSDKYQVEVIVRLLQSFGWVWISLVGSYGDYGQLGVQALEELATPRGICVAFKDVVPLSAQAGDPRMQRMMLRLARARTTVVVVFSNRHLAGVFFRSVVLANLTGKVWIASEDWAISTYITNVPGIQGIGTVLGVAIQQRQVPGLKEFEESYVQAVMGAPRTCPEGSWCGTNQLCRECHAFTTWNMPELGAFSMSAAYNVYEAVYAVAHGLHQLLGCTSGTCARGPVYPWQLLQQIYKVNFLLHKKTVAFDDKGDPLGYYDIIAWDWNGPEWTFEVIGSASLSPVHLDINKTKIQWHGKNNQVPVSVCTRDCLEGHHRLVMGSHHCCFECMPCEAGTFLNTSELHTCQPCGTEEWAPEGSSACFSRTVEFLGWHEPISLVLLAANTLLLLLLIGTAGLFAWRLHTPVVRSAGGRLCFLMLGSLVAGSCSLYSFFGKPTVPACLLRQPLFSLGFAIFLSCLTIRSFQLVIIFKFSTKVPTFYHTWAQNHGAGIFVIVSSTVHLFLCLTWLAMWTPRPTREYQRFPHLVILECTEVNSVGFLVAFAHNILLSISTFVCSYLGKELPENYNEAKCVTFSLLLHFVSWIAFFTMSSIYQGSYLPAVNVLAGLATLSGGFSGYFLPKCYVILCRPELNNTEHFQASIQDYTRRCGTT
In words: Intracellular calcium ion assay, 293 cells coexpressing G protein α-subunits and T1R1. Format: cell-based. The settings on record: 293 cells: T1R1 + G protein α-subunits; 0.67 ml of 1 M saccharide solution added to 2 ml cell suspension; FLUO-4 AM. As to the method:
The coexpression vector for the G protein α-subunit α15 and the G protein α16/Z chimeric protein (hereinafter designated as “G protein α-subunits”) obtained in Example 1-3 was gene transferred to 293 cells, RCB 1637, a human embryonic kidney cell line, available from the Riken Bioresource Center, Ibaraki, Japan, by conventional lipofection. The gene transferred cells were suspended in Dulbecco's Modified Eagle's Medium (D-MEM) supplemented with 1 mg/L of “PUROMYCIN”, a trade mane of puromycin commercialized by Edge Biosystems, MD, USA, and 10% (v/v) of fetal calf serum to give a cell density of 2×10^6 cells/ml and cultured in a plastic petri dish for cell culture. […]
The captioned reactivity test was conducted according to a conventional intracellular calcium ion assay: 293 Cells prepared in Example 3, capable of coexpressing the G protein α-subunits and the sweet taste receptor(s), were cultured in a plastic petri dish for cell culture until reaching its confluent phase. […] Two milliliters of the resultant cell suspension was injected into a glass cuvette, commercialized by Hitachi, Ltd., Tokyo, Japan, and analyzed on “HITACHI 650-40”, a fluorescence spectrophotometer commercialized by Hitachi, Ltd., Tokyo, Japan. […]
A general note: Calcium assays in cells follow changes in intracellular calcium, usually with a dye or a luminescent sensor.

Regarding `OC[C@H]1O[C@@](CO)(O[C@H]2O[C@H](CO)[C@@H](O)[C@H](O)[C@H]2O)[C@@H](O)[C@@H]1O` [Sucrose, reference compound], the “Influx of calcium ion” value was “Negative”.

For the molecule `OC[C@H]1O[C@H](O[C@H]2O[C@H](CO)[C@@H](O)[C@H](O)[C@H]2O)[C@H](O)[C@@H](O)[C@@H]1O` [Trehalose], the “Influx of calcium ion” value is listed as “Negative”.

For the origin of these results see patent US20050048508A1, “Trehalose receptor and method for detecting trehalose with the same” (KABUSHIKI KAISHA HAYASHIBARA SEIBUTSU KAGAKU KENKYUJO, priority 2002, published 2005).
